Patent US9394371B2, “Antibody-mediated disruption of quorum sensing in bacteria” (The Scripps Research Institute, priority 2007, dated 2016)

Test system: S. aureus RN4850
Assay type: cell-based

YSTCYFIM (SEQ ID NO: 123) (thiolactone cyclisation; listed as Staphylococcus aureus) [AIP-4, native S. aureus group IV autoinducing peptide, synthesized, reference compound]
α-hemolysin expression after adding synthetic AIP-4 to AP4-24H11: fully restored expression of α-hemolysin
